From ChEMBL document CHEMBL5543112, “Discovery of CBPD-268 as an Exceptionally Potent and Orally Efficacious CBP/p300 PROTAC Degrader Capable of Achieving Tumor Regression” (J Med Chem, 2024)
Active and inactive are the calls of the source. The rule behind the calls is not given here.

What was measured:
[1] = Toxicity in immune-competent Sprague-Dawley rat assessed as change in monocyte at 1 to 10 mg/kg, po administered twice a week for 5 weeks; assay type: organism-based; conditions: in vivo, 840 h, dose 1-10 mg/kg
[2] = Drug distribution in Sprague-Dawley rat liver at 10 mg/kg, po measured at 24 hrs by LC-MS/MS analysis; assay type: ADME, organism-based; conditions: read-out: Ct
[3] = Drug distribution in Sprague-Dawley rat kidney at 10 mg/kg, po measured at 6 hrs by LC-MS/MS analysis; assay type: ADME, organism-based; conditions: read-out: Ct
[4] = Toxicity in immune-competent Sprague-Dawley rat assessed as change in alanine aminotransferase level at 1 to 10 mg/kg, po administered twice a week for 5 weeks; assay type: organism-based; conditions: in vivo, 840 h, dose 1-10 mg/kg
[5] = Drug distribution in Sprague-Dawley rat spleen at 10 mg/kg, po measured at 6 hrs by LC-MS/MS analysis; assay type: ADME, organism-based; conditions: read-out: Ct
[6] = Drug distribution in SCID mouse spleen at 3 mg/kg, po measured at 6 hrs by LC-MS/MS analysis; assay type: ADME, organism-based; conditions: read-out: Ct
[7] = Metabolic stability in human liver microsome assessed as half life measured upto 60 mins in presence of NADPH by LC-MS/MS analysis; assay type: ADME; conditions: liver microsomes
[8] = Toxicity in female BALB/c mouse assessed as body weight loss at 30 mg/kg, po administered twice a week for 5 to 6 weeks; assay type: organism-based; conditions: in vivo, time 5-6 weeks
[9] = Toxicity in immune-competent Sprague-Dawley rat assessed as change in blood urea nitrogen level at 1 to 10 mg/kg, po administered twice a week for 5 weeks; assay type: organism-based; conditions: in vivo, 840 h, dose 1-10 mg/kg
[10] = Drug distribution in SCID mouse tumor at 3 mg/kg, po measured at 6 hrs by LC-MS/MS analysis; assay type: ADME, organism-based, Neoplasm; conditions: read-out: Ct
[11] = Chemical stability of the compound assessed as parent compound remaining measured at 7 hrs; assay type: physicochemical; conditions: read-out: Stability
[12] = Drug distribution in Sprague-Dawley rat plasma at 3 mg/kg, po measured at 24 hrs by LC-MS/MS analysis; assay type: ADME, organism-based
Cytochrome P450 2D6 = Cytochrome P450 2D6 (Homo sapiens, UniProt P10635); test: Inhibition of CYP2D6 (unknown origin) preincubated with compound for 5 mins followed by NADPH addition and measured after 20 mins by LC-MS/MS analysis; assay type: ADME
[13] = Drug distribution in Sprague-Dawley rat spleen at 3 mg/kg, po measured at 24 hrs by LC-MS/MS analysis; assay type: ADME, organism-based; conditions: read-out: Ct
VCaP = test: Antiproliferative activity against human VCaP cells assessed as cell growth inhibition incubated for 4 days by celtiter-glo luminescent assay; conditions: 96 h
[14] = Drug concentration in SCID mouse tumor at 1 mg/kg, po measured at 24 hrs by LC-MS/MS analysis; assay type: ADME, organism-based, Neoplasm; conditions: read-out: Ct
[15] = Drug distribution in Sprague-Dawley rat liver at 3 mg/kg, po measured at 6 hrs by LC-MS/MS analysis; assay type: ADME, organism-based; conditions: read-out: Ct
Cytochrome P450 2C9 = Cytochrome P450 2C9 (Homo sapiens, UniProt P11712); test: Inhibition of CYP2C9 (unknown origin) preincubated with compound for 5 mins followed by NADPH addition and measured after 10 mins by LC-MS/MS analysis; assay type: ADME
[16] = Drug distribution in Sprague-Dawley rat heart at 3 mg/kg, po measured at 1 hr by LC-MS/MS analysis; assay type: ADME, organism-based; conditions: read-out: Ct
[17] = Drug distribution in Sprague-Dawley rat plasma at 10 mg/kg, po measured at 24 hrs by LC-MS/MS analysis; assay type: ADME, organism-based
[18] = Toxicity in female BALB/c mouse assessed as effect on body weight loss at 3 to 10 mg/kg, po administered twice a week for 5 to 6 weeks; assay type: organism-based; conditions: in vivo, dose lower 3 mg/kg, time lower 5 weeks, dose upper 10 mg/kg, time upper 6 weeks
[19] = Drug distribution in SCID mouse tumor at 0.3 mg/kg, po measured at 1 hr by LC-MS/MS analysis; assay type: ADME, organism-based, Neoplasm; conditions: read-out: Ct
[20] = Metabolic stability in dog liver microsome assessed as half life measured upto 60 mins in presence of NADPH by LC-MS/MS analysis; assay type: ADME, Canis lupus familiaris; conditions: liver microsomes
[21] = Half life in Sprague-Dawley rat at 3 mg/kg, po measured upto 24 hrs by LC/MS-MS analysis; assay type: ADME, organism-based; conditions: in vivo
Cytochrome P450 2B6 = target: T1, Cytochrome P450 2B6 (Homo sapiens, UniProt P20813); test: Inhibition of CYP2B6 (unknown origin) preincubated with compound for 5 mins followed by NADPH addition and measured after 10 mins by LC-MS/MS analysis; assay type: ADME
T1 sequence (P20813 whole entry): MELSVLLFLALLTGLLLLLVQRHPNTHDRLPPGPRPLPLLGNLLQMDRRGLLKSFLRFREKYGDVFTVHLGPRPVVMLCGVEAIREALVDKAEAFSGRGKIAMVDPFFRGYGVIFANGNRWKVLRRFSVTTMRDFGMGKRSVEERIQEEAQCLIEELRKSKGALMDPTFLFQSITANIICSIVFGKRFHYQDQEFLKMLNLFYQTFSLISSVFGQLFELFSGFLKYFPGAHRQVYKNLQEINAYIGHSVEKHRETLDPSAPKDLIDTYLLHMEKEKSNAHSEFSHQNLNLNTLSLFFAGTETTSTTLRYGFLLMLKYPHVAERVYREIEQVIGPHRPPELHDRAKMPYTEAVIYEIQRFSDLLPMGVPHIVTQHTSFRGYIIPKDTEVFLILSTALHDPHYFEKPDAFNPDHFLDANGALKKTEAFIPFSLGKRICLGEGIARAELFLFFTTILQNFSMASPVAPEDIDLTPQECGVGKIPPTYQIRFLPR

[22] = Drug distribution in Sprague-Dawley rat liver at 10 mg/kg, po measured at 6 hrs by LC-MS/MS analysis; assay type: ADME, organism-based; conditions: read-out: Ct
[23] = Metabolic stability in dog plasma assessed as half life measured upto 120 mins by LC-MS/MS analysis; assay type: ADME, cell-free, Canis lupus familiaris
[24] = AUC in Sprague-Dawley rat at 3 mg/kg, po measured upto 24 hrs by LC/MS-MS analysis; assay type: ADME, organism-based; conditions: in vivo
[25] = Toxicity in immune-competent Sprague-Dawley rat assessed as change in calcium level at 1 to 10 mg/kg, po administered twice a week for 5 weeks; assay type: organism-based; conditions: in vivo, 840 h, dose 1-10 mg/kg
CWR22R = test: Antitumor activity against human 22Rv1 cells xenografted in SCID mouse assessed as reduction in BRD3 level in tumor at 1 to 3 mg/kg, po measured at 6 to 24 hrs by Western blotting analysis; assay type: functional, organism-based; conditions: dose 1-3 mg/kg, time 6-24 hrs
Cytochrome P450 3A4 = Cytochrome P450 3A4 (Homo sapiens, UniProt P08684); test: Inhibition of CYP3A4 (unknown origin) using midazolam as substrate preincubated with compound for 5 mins followed by NADPH addition and measured after 20 mins by LC-MS/MS analysis; assay type: ADME
[26] = Toxicity in male BALB/c mouse assessed as effect on body weight loss at 3 to 10 mg/kg, po administered twice a week for 5 to 6 weeks; assay type: organism-based; conditions: in vivo, dose lower 3 mg/kg, time lower 5 weeks, dose upper 10 mg/kg, time upper 6 weeks
[27] = Toxicity in immune-competent Sprague-Dawley rat assessed as change in total protein level at 1 to 10 mg/kg, po administered twice a week for 5 weeks; assay type: organism-based; conditions: in vivo, 840 h, dose 1-10 mg/kg
[28] = Toxicity in SCID mouse xenografted with human VCaP cells assessed as loss of body weight at 1 to 3 mg/kg, po administered daily 5 times a week for 4 weeks; assay type: organism-based; conditions: in vivo, 672 h, dose 1-3 mg/kg

Chain of Cytochrome P450 2C9 (P11712 whole entry): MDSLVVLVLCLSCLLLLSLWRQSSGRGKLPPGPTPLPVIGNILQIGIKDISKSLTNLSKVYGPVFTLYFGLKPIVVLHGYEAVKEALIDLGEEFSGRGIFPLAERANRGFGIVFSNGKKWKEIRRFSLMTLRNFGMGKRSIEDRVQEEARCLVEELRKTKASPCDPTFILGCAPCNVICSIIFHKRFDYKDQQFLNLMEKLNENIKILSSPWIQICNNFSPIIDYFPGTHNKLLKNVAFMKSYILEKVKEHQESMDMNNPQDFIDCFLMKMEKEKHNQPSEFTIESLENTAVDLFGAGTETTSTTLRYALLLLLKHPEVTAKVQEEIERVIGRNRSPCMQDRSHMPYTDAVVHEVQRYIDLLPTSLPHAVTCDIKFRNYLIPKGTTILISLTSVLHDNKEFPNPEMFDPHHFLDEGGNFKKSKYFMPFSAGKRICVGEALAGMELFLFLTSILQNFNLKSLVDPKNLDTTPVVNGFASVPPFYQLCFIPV
Chain of Cytochrome P450 2D6 (P10635 whole entry): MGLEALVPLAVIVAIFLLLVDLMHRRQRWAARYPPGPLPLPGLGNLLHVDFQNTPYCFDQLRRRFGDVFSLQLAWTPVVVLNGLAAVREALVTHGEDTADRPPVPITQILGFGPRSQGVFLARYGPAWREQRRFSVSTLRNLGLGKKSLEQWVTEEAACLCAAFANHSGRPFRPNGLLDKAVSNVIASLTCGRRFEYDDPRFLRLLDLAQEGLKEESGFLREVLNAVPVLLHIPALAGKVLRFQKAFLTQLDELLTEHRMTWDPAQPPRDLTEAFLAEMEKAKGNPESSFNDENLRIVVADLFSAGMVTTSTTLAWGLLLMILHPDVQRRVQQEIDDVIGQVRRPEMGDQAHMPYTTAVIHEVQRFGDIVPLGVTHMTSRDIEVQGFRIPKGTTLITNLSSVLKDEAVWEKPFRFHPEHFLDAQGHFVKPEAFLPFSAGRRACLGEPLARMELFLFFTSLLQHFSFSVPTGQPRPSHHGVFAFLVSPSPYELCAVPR
Chain of Cytochrome P450 3A4 (P08684 whole entry): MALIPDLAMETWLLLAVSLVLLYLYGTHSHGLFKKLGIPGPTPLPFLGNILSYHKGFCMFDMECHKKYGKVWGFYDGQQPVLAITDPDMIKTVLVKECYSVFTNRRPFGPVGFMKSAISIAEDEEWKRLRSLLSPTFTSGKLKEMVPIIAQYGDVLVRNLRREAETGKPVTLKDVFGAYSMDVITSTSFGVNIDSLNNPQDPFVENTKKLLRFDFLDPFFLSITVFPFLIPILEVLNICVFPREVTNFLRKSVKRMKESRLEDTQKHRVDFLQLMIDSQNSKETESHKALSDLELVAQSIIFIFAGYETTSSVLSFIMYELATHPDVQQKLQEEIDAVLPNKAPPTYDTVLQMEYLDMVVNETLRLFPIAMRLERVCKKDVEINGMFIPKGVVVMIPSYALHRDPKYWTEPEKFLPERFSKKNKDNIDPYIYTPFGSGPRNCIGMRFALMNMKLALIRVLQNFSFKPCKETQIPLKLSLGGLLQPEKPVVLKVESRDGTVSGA

- concentration at 24 h [2]: 20.2 ng/g
- concentration at 6 h [3]: 224 ng/g
- concentration at 6 h [5]: 406 ng/g
- concentration at 6 h [6]: 738 ng/mL
- half-life [7]: 48 min
- concentration at 6 h [10]: 294 ng/g
- remaining at 7 h [11]: < 10%
- concentration at 24 h [12]: 1.3 ng/mL
- IC50 (Cytochrome P450 2D6): > 10 µM
- concentration at 24 h [13]: 8.1 ng/g
- IC50 (VCaP): 4.6 nM
- concentration at 24 h [14]: 6.3 ng/g
- concentration at 6 h [15]: 148 ng/g
- IC50 (Cytochrome P450 2C9): > 10 µM
- concentration at 1 h [16]: 246 ng/g
- concentration at 24 h [17]: 1.3 ng/mL
- concentration at 1 h [19]: 27.8 ng/g
- half-life [20]: 49 min
- half-life [21]: 78 min
- IC50 (Cytochrome P450 2B6): > 10 µM
- concentration at 6 h [22]: 541 ng/g
- half-life [23]: 78 min
- AUC at 24 h [24]: 937 ng·h/mL
- IC50 (Cytochrome P450 3A4): > 10 µM
Compound: CC(=O)N1CCc2c(c(N3CCCc4cc(-c5cnn(C)c5)c(C(F)F)cc43)nn2[C@H]2CC[C@H](CN3Cc4cc5c(cc4C3)C(=O)N(C3CCC(=O)NC3=O)C5=O)CC2)C1 (some centres undefined)
- Activity [1]: Non-Toxic
- Activity [4]: Non-Toxic
- Activity [8]: < 5%
- Activity [9]: Non-Toxic
- Activity [18]: Non-Toxic
- Activity [25]: Non-Toxic
- Activity (CWR22R): Active
- Activity [26]: Non-Toxic
- Activity [27]: Non-Toxic
- Activity [28]: > 8%
